Assay results as given in patent publication US8968709B2, “Therapeutic dental composition and related methods” (3M Innovative Properties Company, priority 2007, dated 2015).
≈ marks a conversion by molar mass, not a printed value. Where two headings read alike, the source gives them in different places.

Tests used:
Type in all cases: cell-based
[1] = tested on: Streptococcus mutans (ATCC 25175) biofilm; assay: Qualitative Biofilm Inhibition Test (visual examination of discs); design: key: +: a visual assessment that a compound inhibited biofilm formation; −: a visual assessment that either a compound did not inhibit biofilm formation, or that bacteria grew in the culture broth; settings: visible biofilm on cured composite disc after incubation and water rinse; 1 weight percent compound, 1.0 weight percent sucrose
Description: During the procedure for the Quantitative Biofilm Inhibition Test, each cured disc was visually examined after it was removed from the broth (and rinsed with water) and before it was placed in a test tube containing five milliliters of 1M aqueous sodium hydroxide solution. The presence or absence of visible biofilm on a disc was noted. The Biofilm Inhibition Test was carried out using compounds of the dental composition. […] In addition, a qualitative determination of biofilm formation was made for each Example and the Comparative Example in which each disc was visually examined before it was placed in the tube containing the aqueous sodium hydroxide solution.

[2] = tested on: Streptococcus mutans (strain ATCC 25175); assay: Minimum Inhibitory Concentration (MIC) Test, S. mutans; settings: 37° C., 24 hours, "none" = no inhibitory activity detected
Description: (§1) The MIC Test was carried out using successively lower concentrations of compounds. Sterile tryptic soy broth (50 microliters; TSB, available from BD Dfico, Becton, Dickinson and Company, Franklin Lakes, N.J.) was deposited into each well of a sterile polystyrene 96-well microtiter plate. Into each well in the first (leftmost) column of the plate, there was then deposited a 50 microliter aliquot (of known concentration) of a compound (I.e., a compound of Formula I, or a pharmaceutically acceptable salt thereof, or comparative compound). A 50 microliter aliquot of the mixture in the first (leftmost) well in the first row of the plate was transferred to the second well in the first row. A 50 microliter aliquot of the mixture in the second well in the first row was then transferred to the third well in the first row. The compound was successively diluted (1:1 dilution at each step) by transferring a 50 microliter aliquot from one well into the next well, across the row of the plate. This procedure was repeated for each row of the plate. Then, an overnight culture of Streptococcus mutans (strain ATCC 25175) was diluted 1:100 into sterile tryptic soy broth. A 50 microliter aliquot of the diluted S. mutans culture (10^5 CFU) was deposited into each well of the microtiter plate. The plate was then incubated at 37° C. for 24 hours in a sealed humidified chamber. The plate was then visually inspected to determine the lowest concentration of compound at which no bacterial growth was visible. This value was considered to be the minimum inhibitory concentration (MTC) for the compound. The test was repeated using Staphylococcus aureus (strain ATCC 6538) and Pseudomonas aeruginosa (strain ATCC 9027) in place of S. mutans. A sample of each of the compounds of Formulae II, III, IV, V, and VI (0.050 g each) was dissolved in water (5 g). Each of the samples was evaluated using the Minimum Inhibitory Concentration (MIC) Test described above with S. mutans, S. aureus, and P. aeruginosa. In Table 3, “none” means that no inhibitory activity was detected.

[3] = tested on: Pseudomonas aeruginosa (strain ATCC 9027); assay: Minimum Inhibitory Concentration (MIC) Test, P. aeruginosa; settings: 37° C., 24 hours, "none" = no inhibitory activity detected
Description: as §1

[4] = tested on: Streptococcus mutans (ATCC 25175) biofilm; assay: Quantitative Biofilm Inhibition Test; settings: average optical density at 550 nm as percentage of control; 1 weight percent compound, 1.0 weight percent sucrose in brain heart infusion broth, 37° C., approximately twenty hours, five discs
Description: Compounds of the dental compositions of the invention, and comparative compounds, were evaluated for biofilm inhibition activity. Composite dental restorative (available under the trade designation “FILTEK SUPREME” from 3M ESPE Dental Products, St. Paul, Minn.) was placed in a 15 millimeter by 1 millimeter stainless steel die. The open ends of the die were then covered with polyester film and the die was subjected to a pressure of 68.95 MPa using a hydraulic press. While the die containing the composite restorative was under compression, the composite was irradiated for two minutes using a Model ACE light source (available from SCHOTT North America, Inc., Auburn, N.Y.). The discs of cured composite restorative were then further cured using a Model UniXS light box (available from Heraeus Kulzer, Inc., Armonk, N.Y.) for 1.5 minutes.
The cured discs of composite restorative were then immersed in ten milliliters of Streptococcus mutans culture (ATCC 25175; 10^6 CFU/mL) prepared in brain heart infusion broth that contained 1.0 weight percent sucrose and 1 weight percent of a compound of the dental composition. The samples were incubated at 37° C. for approximately twenty hours, after which time the cured discs were removed from the broth and were gently rinsed with water. Each disc was placed in a separate test tube containing five milliliters of 1M aqueous sodium hydroxide solution, and each test tube was then sonicated for two minutes using a model SH1012-40-8 ultrasonic generator (manufactured by Branson Ultrasonics Corp., Danbury, Conn.) for two minutes to dislodge biofilm on the disc. The optical absorbance (optical density) of each aqueous sodium hydroxide solution was then measured at 550 nm using a Model ULTROSPEC III UV-visible spectrophotometer (manufactured by Pharmacia AB, Uppsala, Sweden). For each compound of the dental composition, five discs were separately incubated in broth and were evaluated separately to provide five optical density measurements. The average of the five optical density measurements was then calculated. […] The average optical density of the control or comparative samples was determined as described above. The ratio, expressed as a percentage, of the average optical density for each compound sample to the average optical density for a control sample was calculated by dividing the average optical density for each compound sample by the average optical density for a control sample and multiplying the result by one hundred. The ratio was considered to be proportional to the average amount of biofilm on the five cured discs, i.e., relatively low average optical density ratio was considered to be indicative of inhibition of biofilm formation. The ratio for the control was 100%.
The Biofilm Inhibition Test was carried out using compounds of the dental composition. […] In addition, a qualitative determination of biofilm formation was made for each Example and the Comparative Example in which each disc was visually examined before it was placed in the tube containing the aqueous sodium hydroxide solution.

[5] = tested on: Staphylococcus aureus (strain ATCC 6538); assay: Minimum Inhibitory Concentration (MIC) Test, S. aureus; settings: tryptic soy broth, 37° C., 24 hours, "none" = no inhibitory activity detected
Description: as §1

[6] = tested on: Streptococcus mutans (ATCC 25175) biofilm; assay: Biofilm Inhibition Test: concentration of compound to inhibit biofilm formation at varied sucrose
[7] = Streptococcus mutans, ATCC25175, tryptic soy broth, read-out: MIC

| SMILES | MIC ([2]; tryptic soy broth) | MIC ([3]; tryptic soy broth) | MIC [5] | MIC [2, 7] [µg/mL] | MIC ([3]; Pseudomonas aeruginosa, ATCC9027, tryptic soy broth, read-out: MIC) [µg/mL] | Visual Assessment [1] | OD Ratio [4] [%] | Concentration of Compound to Inhibit Biofilm Formation ([6]; 1 wt % Sucrose) [mM] | Concentration of Compound to Inhibit Biofilm Formation ([6]; 2.5 wt % Sucrose) [mM] | Concentration of Compound to Inhibit Biofilm Formation ([6]; 5 wt % Sucrose) [mM] |
| --- | --- | --- | --- | --- | --- | --- | --- | --- | --- | --- |
| CNC[C@H](O)[C@@H](O)[C@H](O)[C@H](O)CO [N-Methyl-D-glucamine, N-methyl-D-glucamine] | none | none | none | – | – | + | 0 | 50 | 50 | 50 |
| CCCCCCCCCC(=O)N(C)C[C@H](O)[C@@H](O)[C@H](O)[C@H](O)CO [N-Methyl-N-decanoyl-D-glucamine, N-methyl-N-decanoyl-D-glucamine] | – | – | 2.50 | 1250 (≈ 3.58 mM) | 2500 (≈ 7.15 mM) | + | 0 | – | – | – |
| CCCCCCCC(=O)N(C)C[C@H](O)[C@@H](O)[C@H](O)[C@H](O)CO [N-Methyl-N-octanoyl-D-glucamine, N-methyl-N-octanoyl-D-glucamine] | none | none | none | – | – | + | 0 | – | – | – |

Further lines, with some results ahead:

| MIC ([2]; tryptic soy broth) | MIC ([3]; tryptic soy broth) | MIC [5] | MIC [2, 7] [µg/mL] | MIC ([3]; Pseudomonas aeruginosa, ATCC9027, tryptic soy broth, read-out: MIC) [µg/mL] | SMILES | Visual Assessment [1] | OD Ratio [4] [%] | Concentration of Compound to Inhibit Biofilm Formation ([6]; 1 wt % Sucrose) [mM] | Concentration of Compound to Inhibit Biofilm Formation ([6]; 2.5 wt % Sucrose) [mM] | Concentration of Compound to Inhibit Biofilm Formation ([6]; 5 wt % Sucrose) [mM] |
| --- | --- | --- | --- | --- | --- | --- | --- | --- | --- | --- |
| none | none | none | – | – | NC[C@H](O)[C@@H](O)[C@H](O)[C@H](O)CO [D-Glucamine, D-glucamine] | + | 101.5 | – | – | – |
| – | none | none | 2500 (≈ 7.45 mM) | – | CCCCCCCCC(=O)N(C)C[C@H](O)[C@@H](O)[C@H](O)[C@H](O)CO [N-Methyl-N-nonanoyl-D-glucamine, N-methyl-N-nonanoyl-D-glucamine] | + | 0 | – | – | – |
